Measured values as given in patent US9422283B2, “Salts and polymorphs of a substituted imidazopyridinyl-aminopyridine compound” (ArQule, Inc., priority 2014, dated 2016).
Converted amounts (≈) assume the structure as drawn. “Also recorded” adds a separate entry of the source. Where a name gives a salt, the structure may show the parent alone. Read-outs that look alike come from different tables or passages of the source.

Experiments:
Assay type in all cases: physicochemical
[1] = Aqueous solubility studies of bis-mesylate forms (slurry in deionised water, HPLC, XRPD); conditions: about 24 hours; for polymorphic form after slurrying in deionised water (XRPD): ambient temperature
Protocol: Purity and concentration analyses were carried out using the following method:
• Pan Number 186003045 Column Temperature: 25° C. Autosampler Temperature: 5° C. Detection: 226 nm Mobile Phase A: 95:5:0.1% Water:Methanol:TFA Mobile Phase B: 95:5:0.1% Methanol:Water:TFA Gradient: See table below for conditions Flow Rate: 1.0 mL/minute Injection Volume: 10 μl Analysis Time: 36 minutes Re-equilibration Time: 4 minutes Data Collection time: 36 minutes Needle Wash: 100% Methanol
Slurries of Form A, Form B, Form C, Form D, Form E and Form I were created in deionised water and shaken for about 24 hours at ambient temperature (about 22° C.). The resulting solutions were then analyzed by HPLC and the aqueous solubility was determined. The remaining solids were analyzed by XRPD to determine if any form changes had occurred during slurrying.

[2] = Dynamic Vapour Sorption (DVS)
Protocol: Approximately 10 mg of sample was placed into a mesh vapour sorption balance pan and loaded into a DVS-1 dynamic vapour sorption balance by Surface Measurement Systems. The sample was subjected to a ramping profile of 0-90%, 90-0% relative humidity (RH) at 10% increments for anhydrous samples and 30-90%, 90-0%, 0-90%, 90-0% for hydrated samples, maintaining the sample at each step until a stable weight had been achieved (99.5% step completion). The weight changes during the sorption/desorption cycles were plotted, allowing the hygroscopic nature of the sample to be determined.

[3] = Stability testing of bis-mesylate forms for 1 week (XRPD, HPLC purity)
Protocol: Form A, Form B, Form C, Form D, Form E and Form I were exposed to environments of 40° C./75% RH, ambient light (about 22° C.) and elevated temperature (80° C.) for 1 week to determine the stability. The resulting solids were analyzed by XRPD to establish if any form changes had occurred and by HPLC to determine purity.

[4] = Solvent solubility screen by solvent addition technique; conditions: for observation in solubility screen: 40° C.; for solubility: 40 °C, thermodynamic from solid, amorphous input, read-out: Solubility (mg/mL) at 40° C.
Protocol: The amorphous form of Compound A bis-mesylate salt was used as the input material for the solubility screen. Solubility values were estimated by a solvent addition technique in order to provide approximate values for generating slurries during later experiments. Approximately 15 mg of amorphous material was weighed out into 24 vials. Each solvent was added to the appropriate vial in 10 aliquots of 10 μl, 5 aliquots of 20 μl, 3 aliquots of 100 μl and 1 aliquot of 500 μl or until the material dissolved. In between additions, the sample was heated to 40° C. To vials which already contained 1000 μl of solvent but still had observable solid material, a further aliquot of 1000 μl of solvent was added. If 2000 μl of solvent was added without dissolution of the solid, solubility was calculated to be below this point.

Nc1ncccc1-c1nc2ccc(-c3ccccc3)nc2n1-c1ccc(C2(N)CCC2)cc1 [Form A, 3-(3-(4-(1-aminocyclobutyl)phenyl)-5-phenyl-3H-imidazo[4,5-b]pyridin-2-yl)pyridin-2-amine]
polymorphic form after slurrying in deionised water (XRPD) [1]: converted to Form E
solubility at 24 h ([1]; deionised water, 22 °C, water, thermodynamic from solid, deionised water, ambient temperature (about 22° C.), read-out: aqueous solubility (HPLC concentration analysis)): ~383000 µg/mL (≈ 886 mM)
DVS (summary Table 21) [2]: Moderately
DVS desorption behaviour / hysteresis [2]: No significant hysteresis
hygroscopicity (DVS) [2]: moderate hygroscopicity
polymorphic form after DVS analysis (XRPD) [2]: consistent with Form A; also recorded: Form A post
DVS water uptake ([2]; up to 70% RH): about 2.4%
HPLC purity after stability test ([3]; 40° C./75% RH): about 99.8%
polymorphic form after stability test (XRPD) ([3]; 40° C./75% RH): No change
HPLC purity after stability test ([3]; 80° C.): about 99.8%
polymorphic form after stability test (XRPD) ([3]; 80° C.): No change
polymorphic form after stability test (XRPD) ([3]; ambient light (about 22° C.)): No change
HPLC purity after stability test ([3]; ambient temperature): about 99.7%

Nc1ncccc1-c1nc2ccc(-c3ccccc3)nc2n1-c1ccc(C2(N)CCC2)cc1 [Form B, 3-(3-(4-(1-aminocyclobutyl)phenyl)-5-phenyl-3H-imidazo[4,5-b]pyridin-2-yl)pyridin-2-amine]
polymorphic form after slurrying in deionised water (XRPD) [1]: converted to Form E
DVS (summary Table 21) [2]: Gradual uptake
DVS desorption behaviour / hysteresis [2]: gradual loss from 90% down to 0% RH
HPLC purity after stability test ([3]; 40° C./75% RH): about 99.8%
polymorphic form after stability test (XRPD) ([3]; 40° C./75% RH): converted to Form J
HPLC purity after stability test ([3]; 80° C.): about 99.8%
polymorphic form after stability test (XRPD) ([3]; 80° C.): Form I
polymorphic form after stability test (XRPD) ([3]; ambient light (about 22° C.)): remained unchanged
HPLC purity after stability test ([3]; ambient temperature): about 99.7%

Nc1ncccc1-c1nc2ccc(-c3ccccc3)nc2n1-c1ccc(C2(N)CCC2)cc1 [Form C, 3-(3-(4-(1-aminocyclobutyl)phenyl)-5-phenyl-3H-imidazo[4,5-b]pyridin-2-yl)pyridin-2-amine]
polymorphic form after slurrying in deionised water (XRPD) [1]: converted to Form E
DVS (summary Table 21) [2]: Non-hygroscopic
hygroscopicity (DVS) [2]: non-hygroscopic
polymorphic form after DVS analysis (XRPD) [2]: consistent with Form C; also recorded: Form C post
DVS total water uptake ([2]; up to 90% RH): about 0.54%
HPLC purity after stability test ([3]; 40° C./75% RH): about 99.9%
polymorphic form after stability test (XRPD) ([3]; 40° C./75% RH): No change
HPLC purity after stability test ([3]; 80° C.): about 99.9%
polymorphic form after stability test (XRPD) ([3]; 80° C.): No change
polymorphic form after stability test (XRPD) ([3]; ambient light (about 22° C.)): No change
HPLC purity after stability test ([3]; ambient temperature): about 99.9%

Nc1ncccc1-c1nc2ccc(-c3ccccc3)nc2n1-c1ccc(C2(N)CCC2)cc1 [Compound A bis-mesylate salt, 3-(3-(4-(1-aminocyclobutyl)phenyl)-5-phenyl-3H-imidazo[4,5-b]pyridin-2-yl)pyridin-2-amine]
observation in solubility screen ([4]; 1,4-Dioxane): Colourless solution
observation in solubility screen ([4]; 2-Methyl THF): Colourless solution
observation in solubility screen ([4]; 2-Propanol): Good solubility
observation in solubility screen ([4]; 2-Propanol:water (50:50)): Good solubility
solubility ([4]; aqueous with cosolvent or surfactant or cyclodextrin, 2-Propanol:water (50:50)): ~400 mg/mL
solubility ([4]; organic solvent or mixture, 1,4-Dioxane): < 8 mg/mL
solubility ([4]; organic solvent or mixture, 1-Butanol): < 8 mg/mL
solubility ([4]; organic solvent or mixture, 2-Ethoxyethanol): < 8 mg/mL
solubility ([4]; organic solvent or mixture, 2-Methyl THF): < 8 mg/mL
solubility ([4]; organic solvent or mixture, 2-Propanol): ~25 mg/mL
solubility ([4]; organic solvent or mixture, Acetone:water (90:10)): ~16 mg/mL
solubility ([4]; organic solvent or mixture, Acetone): < 8 mg/mL
solubility ([4]; organic solvent or mixture, Acetonitrile): < 8 mg/mL
solubility ([4]; organic solvent or mixture, Cyclohexane): < 8 mg/mL
solubility ([4]; organic solvent or mixture, Dichloromethane): < 8 mg/mL
solubility ([4]; organic solvent or mixture, Diisopropyl ether): < 8 mg/mL
solubility ([4]; organic solvent or mixture, Dimethylsulfoxide): ~126 mg/mL
solubility ([4]; organic solvent or mixture, Ethanol): < 8 mg/mL
solubility ([4]; organic solvent or mixture, Ethyl acetate): < 8 mg/mL
solubility ([4]; organic solvent or mixture, Heptane): < 8 mg/mL
solubility ([4]; organic solvent or mixture, Isopropyl acetate): < 8 mg/mL
solubility ([4]; organic solvent or mixture, Methanol): ~40 mg/mL
solubility ([4]; organic solvent or mixture, Methylethyl ketone): < 8 mg/mL
solubility ([4]; organic solvent or mixture, Methylisobutyl ketone): < 8 mg/mL
solubility ([4]; organic solvent or mixture, Tetrahydrofuran): < 8 mg/mL
solubility ([4]; organic solvent or mixture, Toluene): < 8 mg/mL
solubility ([4]; organic solvent or mixture, tert-Butylmethyl ether): < 8 mg/mL
solubility ([4]; Water): ~769 mg/mL
observation in solubility screen ([4]; Acetone:water (90:10)): Good solubility
observation in solubility screen ([4]; Cyclohexane): Colourless solution
observation in solubility screen ([4]; Dichloromethane): Colourless solution
observation in solubility screen ([4]; Diisopropyl ether): Colourless solution
observation in solubility screen ([4]; Dimethylsulfoxide): Good solubility
observation in solubility screen ([4]; Heptane): Colourless solution
observation in solubility screen ([4]; Isopropyl acetate): Colourless solution
observation in solubility screen ([4]; Methanol): Good solubility
observation in solubility screen ([4]; Methylethyl ketone): Colourless solution
observation in solubility screen ([4]; Methylisobutyl ketone): Colourless solution
observation in solubility screen ([4]; Toluene): Colourless solution
observation in solubility screen ([4]; Water): Good solubility
observation in solubility screen ([4]; tert-Butylmethyl ether): Colourless solution
